Laboratory results taken from patent US20100184807A1, “Methods to inhibit tumor cell growth by using proton pump inhibitors” (Bio-Quant, Inc., priority 2008, published 2010).

Assays:
Assay in all cases: MTT tumor cell growth assay
Format in all cases: cell-based
DOHH2 (lymphoma) = conditions: DOHH2 cells, lansoprazole 1-100 μM, 48 hours
EKVX (lung cancer) = conditions: EKVX cells, lansoprazole 1-100 μM, 48 hours
J45-01 (leukemia) = conditions: J45-01 cells, lansoprazole 1-100 μM, 48 hours
MC116 (leukemia) = conditions: MC116 cells, lansoprazole 1-100 μM, 48 hours
P116 (intestinal cancer) = conditions: P116 cells, lansoprazole 1-100 μM, 48 hours
RXF393 (kidney cancer) = conditions: RXF393 cells, lansoprazole 1-100 μM, 48 hours
SF-539 (brain cancer) = conditions: SF-539 cells, lansoprazole 1-100 μM, 48 hours
Procedure: (§1) In one study, adherent cells were plated approximately 16-24 hours before the day of the experiment in 180 μl growth media. On the day of the experiment, the plated adherent cells were analyzed and counted and suspension cells were plated in 180 μl growth media. 10× lansoprazole compounds and vehicle was prepared. The 10× lansoprazole compounds were prepared by diluting lansoprazole to final concentrations of 100 μM, 30 μM, 10 μM, 3 μM, and 1 μM. A vehicle was prepared by preparing a solution of PBS, equivalent to the volume used for 10 μM lansoprazole wherein the 1× solution constitutes ˜0.06% PBS. 10 μl of the various 10× lansoprazole solutions and the vehicle were added to the cells. The cells were incubated at 37° C., 5% CO2 for 48 hours. The media was then aspirated. The cell suspension was then spun at 1500 RPM for 10 minutes. The media was slowly removed. 200 μl of MTT solution was added to each well with a concentration of 0.863 mg/ml MTT in the growth media. The cells were incubated at 37° C., 5% CO2 for 4 hours and the medium is then aspirated. The plate containing the cell suspension was then spun at 1500 RPM for 10 minutes. The media was slowly removed using a multichannel pipettor. 100 μl of DMSO was then added to each well. The cells were incubated at 37° C., 5% CO2 for 5 minutes and the absorbance was obtained at 560 nm using a Dynex Opsys MR plate reader.

SF295 (brain cancer) = conditions: SF295 cells, lansoprazole 1-100 μM, 48 hours
Procedure: as §1

SNB19 (brain cancer) = conditions: SNB19 cells, lansoprazole 1-100 μM, 48 hours
Procedure: as §1

U251 (brain cancer) = conditions: U251 cells, lansoprazole 1-100 μM, 48 hours
Procedure: as §1

Measured: tumor cell growth reduction

Cc1c(OCC(F)(F)F)ccnc1C[S+]([O-])c1nc2ccccc2[nH]1 (stereo not shown) [lansoprazole]
significant tumor cell growth reduction: all assays above
